# Source: article PMC4685510, “A Cell Biologist’s Field Guide to Aurora Kinase Inhibitors” (Frontiers in Oncology, 2015)
# “Also recorded” adds a separate entry of the source. Read-outs that look alike come from different tables or passages of the source.
# Assays:
# [1] = test system: pAuroraA(Thr 288) in HeLa cells; experiment: Immunoblotting of Aurora A activation loop phosphorylation; format: cell-based, human; conditions: immunoblot
# [2] = test system: pH3(Ser 28) in HeLa cells; experiment: Substrate phosphorylation immunofluorescence assay, pH3(Ser 28), HeLa; format: cell-based, human; conditions: for IC50: Homo sapiens, 8 h, read-out: pHistone H3 (Ser28) IC50
# [3] = test system: pLATS2(Ser 83) in RPE1 cells; experiment: Substrate phosphorylation immunofluorescence assay, pLATS2(Ser 83), RPE1; format: cell-based, human; conditions: RPE1, 8 h inhibitor treatment; for IC50: Homo sapiens, RPE-1, read-out: pLATS2 (Ser83) IC50
# Method: (§1) We employed the protocol described in Figure 3D to analyze substrate phosphorylation in HeLa cells following treatment with all 10 inhibitors in dose–response. Asynchronous cells were incubated with vehicle (DMSO) or different inhibitor doses for 8 h and then fixed and labeled with a mixture of three antibodies directed against pLATS2(Ser 83), pH3(Ser 28), and MPM2 [which detects mitotic phosphoepitopes; ([86])]. While both the anti-pLATS2(Ser 83) and MPM2 antibodies are mouse monoclonals, they are of different IgG subclasses [IgG2b for anti-pLATS2(Ser 83) and IgG1 for MPM2], and can thus be detected with subclass-specific secondary antibodies (Table S3 in Supplementary Material).
# (§2) In control mitotic cells, pLATS2(Ser 83) is concentrated in foci around the spindle poles (Figure 3E; top row – green arrow) and pH3(Ser 28) is on the mitotic chromatin (Figure 3E; top row – red arrow). Selective kinase inhibition should result in loss of one signal but not the other, as illustrated by the example images for specific conditions in Figure 3E (middle and bottom rows). Cells were imaged in 4 channels to visualize pLATS2(Ser 83), pH3(Ser 28), MPM2, and DNA (labeled with Hoechst) and mitotic cells were segmented based on their bright MPM2 labeling (Figure 3E). Intensity and area thresholds were set to select the pLATS2(Ser 83) foci and the pH3(Ser 28)-labeled chromatin in their respective channels in DMSO-treated control cells and the same thresholds were applied for inhibitor-treated cells. The mean fluorescence intensity per pixel was measured to assess the activities of the kinases targeting these two substrate phosphorylation sites.
# (§3) Twelve thousand HeLa cells, 10,000 U2OS cells, or 8,000 RPE1 cells were seeded into 96-well glass-bottom Sensoplates (Greiner) 16 h before inhibitor addition. Prior to seeding, the glass-bottom plates were coated with poly-L-lysine (Sigma). […] After 8 h cells were fixed with 4% PFA for 20 min at room temperature. The fixed cells were washed with PBS. For immunostaining, cells were permeabilized and blocked with PBS containing 10% normal donkey serum (Jackson ImmunoResearch) and 0.1% Triton-X100 for 1 h at room temperature. Primary antibodies against phospho-LATS2 (Ser 83), phospho-histone H3(Ser 28), and anti-phospho-MPM2 (see Table S3 in Supplementary Material) were incubated for 1 h at room temperature. […] Cells were then washed twice with PBS containing 0.1% Triton-X100. Image acquisition in four channels was performed using a CV7000 spinning disk confocal system (Yokogawa Electric Corporation) with a 40 × 0.95 NA U-PlanApo objective and 2560 × 2160 pixel sCMOS camera. […] Fifty fields per well were imaged with quadruplicate wells for each condition. Image analysis was done using the CV7000 image analysis software (Yokogawa Electric Corporation). Between 100 and 1,000 mitotic cells per condition were segmented applying object identification parameters to select for bright MPM2 labeling. Using a nuclear identifier protocol, minimum intensity thresholds were set for pLATS2(Ser 83) and the pH3(Ser 28) signals, and the resulting identified objects were eroded, dilated, and filtered for size by user-defined thresholds. For only the MPM2-positive mitotic cells, the mean fluorescence intensity of the identified pLATS2(Ser 83) and pH3(Ser 28) objects was measured, and the average intensity per cell per well was calculated. The same thresholds were applied for all of the inhibitor-treated samples, which were processed, imaged, and analyzed in parallel with control DMSO-treated cells. Data were fit using a four-parameter, variable slope fit in Prism (GraphPad). Primary and secondary antibody dilutions can be found in Table S3 in Supplementary Material.
# [4] = test system: pH3(Ser 28) in RPE1 cells; experiment: Substrate phosphorylation immunofluorescence assay, pH3(Ser 28), RPE1; format: cell-based, human; conditions: Homo sapiens, read-out: pHistone H3 (Ser28) IC50
# [5] = test system: RPE1 cells; experiment: Cytokinesis assay (live imaging, YFP-α-tubulin; H2B-RFP), RPE1; format: cell-based; conditions: Homo sapiens
# [6] = test system: HeLa cells; experiment: Cytokinesis assay (live imaging, YFP-α-tubulin; H2B-RFP), HeLa; format: cell-based, human; conditions: for IC50: Homo sapiens, HeLa, read-out: Cytokinesis IC50
# [7] = test system: pAuroraB(Thr 232), pH3(Ser 10), pH3(Ser 28) in HeLa cells; experiment: Immunoblotting of pAuroraB(Thr 232), pH3(Ser 28) and pH3(Ser 10); format: cell-based, human; conditions: immunoblot, dose–response
# [8] = test system: HeLa, RPE1, and U2OS cells; experiment: Cellular proliferation analysis (ATPLite, 24 h); conditions: HeLa, RPE1, U2OS; 24 h (Figure 4D, Figure S2B)
# [9] = test system: pLATS2(Ser 83) in U2OS cells; experiment: Substrate phosphorylation immunofluorescence assay, pLATS2(Ser 83), U2OS; format: cell-based, human; conditions: 8 h inhibitor treatment; for IC50: Homo sapiens, read-out: pLATS2 (Ser83) IC50
# Method: as §1, §2, §3
# [10] = test system: U2OS cells; experiment: Cytokinesis assay (live imaging, YFP-α-tubulin; H2B-RFP), U2OS; format: cell-based; conditions: Homo sapiens, read-out: Cytokinesis IC50
# [11] = test system: pH3(Ser 28) in U2OS cells; experiment: Substrate phosphorylation immunofluorescence assay, pH3(Ser 28), U2OS; format: cell-based, human; conditions: Homo sapiens, read-out: pHistone H3 (Ser28) IC50
# [12] = test system: pLATS2(Ser 83) in HeLa cells; experiment: Substrate phosphorylation immunofluorescence assay, pLATS2(Ser 83), HeLa; format: cell-based, human; conditions: HeLa; for pLATS2 (Ser83) IC50 / IC50: 8 h inhibitor treatment; for IC50: Homo sapiens, 8 h, read-out: pLATS2 (Ser83) IC50
# Method: as §1, §2, §3
# [13] = test system: 363 human kinases (including Aurora A/B/C); experiment: biochemical; format: biochemical
# [14] = target: 363 human kinases (including Aurora A/B/C) (Homo sapiens, UniProt Q16539); experiment: biochemical; format: biochemical; conditions: read-out: % Enzyme Activity (relative to DMSO controls)
# Sequence of 363 human kinases (including Aurora A/B/C) (Homo sapiens, UniProt Q16539) (Q16539 whole entry): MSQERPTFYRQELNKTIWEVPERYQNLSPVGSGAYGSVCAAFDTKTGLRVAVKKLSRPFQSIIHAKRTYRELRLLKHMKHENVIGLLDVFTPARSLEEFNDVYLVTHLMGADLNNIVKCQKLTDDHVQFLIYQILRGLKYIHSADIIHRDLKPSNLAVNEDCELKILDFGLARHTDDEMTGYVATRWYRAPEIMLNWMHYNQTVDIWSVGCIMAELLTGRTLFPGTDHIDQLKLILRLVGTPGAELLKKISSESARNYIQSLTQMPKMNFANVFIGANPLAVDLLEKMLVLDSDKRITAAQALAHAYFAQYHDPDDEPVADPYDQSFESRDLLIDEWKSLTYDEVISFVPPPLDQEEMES
# [15] = target: T1, Aurora B/INCENP^783–918 (Homo sapiens, UniProt Q96GD4); experiment: Aurora B/INCENP^783–918 kinase assay (ADP-Glo); format: biochemical
# T1 construct: purchased SignalChem
# T1 sequence (Q96GD4 whole entry): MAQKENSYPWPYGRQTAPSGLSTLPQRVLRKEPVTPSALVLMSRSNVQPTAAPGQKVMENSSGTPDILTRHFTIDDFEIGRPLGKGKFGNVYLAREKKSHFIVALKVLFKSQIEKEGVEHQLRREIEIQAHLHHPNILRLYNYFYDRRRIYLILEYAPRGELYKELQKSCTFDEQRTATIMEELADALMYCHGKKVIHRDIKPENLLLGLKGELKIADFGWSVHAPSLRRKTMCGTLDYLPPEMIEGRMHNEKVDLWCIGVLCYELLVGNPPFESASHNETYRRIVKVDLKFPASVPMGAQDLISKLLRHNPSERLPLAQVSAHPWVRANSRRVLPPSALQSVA
# T1 sequence (Q9NQS7 783-918 partner limits assumed): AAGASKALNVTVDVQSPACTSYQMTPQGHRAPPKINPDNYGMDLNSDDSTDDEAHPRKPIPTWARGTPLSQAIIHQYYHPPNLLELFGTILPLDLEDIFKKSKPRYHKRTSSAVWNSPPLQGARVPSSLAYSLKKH
# [16] = target: T2, Aurora A/TPX2^1–43 (Homo sapiens, UniProt O14965); experiment: Aurora A/TPX2^1–43 kinase assay (ADP-Glo); conditions: Aurora A-TPX2^1–43 Ki Mean ± SD, [ATP] = Km(ATP) (3 μM); 40 nM TPX2^1–43
# T2 sequence (O14965 1-403): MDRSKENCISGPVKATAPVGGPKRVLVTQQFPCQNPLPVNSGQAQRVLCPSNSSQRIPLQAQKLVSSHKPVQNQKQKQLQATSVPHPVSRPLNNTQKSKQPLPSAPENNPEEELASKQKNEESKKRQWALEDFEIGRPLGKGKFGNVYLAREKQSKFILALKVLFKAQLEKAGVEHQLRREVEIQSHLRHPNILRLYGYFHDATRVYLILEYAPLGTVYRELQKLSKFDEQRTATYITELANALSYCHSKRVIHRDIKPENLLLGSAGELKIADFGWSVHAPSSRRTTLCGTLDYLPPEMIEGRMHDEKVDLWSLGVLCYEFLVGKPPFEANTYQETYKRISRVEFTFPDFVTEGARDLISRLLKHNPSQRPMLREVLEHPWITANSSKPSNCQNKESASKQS
# T2 sequence (Q9ULW0 1-43 partner limits assumed): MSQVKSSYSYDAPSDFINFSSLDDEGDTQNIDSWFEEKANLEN
# [17] = test system: Aurora B; conditions: read-out: Aurora B IC50 (Published), cited from earlier work
# [18] = target: T3, full-length human Aurora A (Homo sapiens, UniProt O14965); experiment: Aurora A kinase assay (ADP-Glo, Kemptide substrate); conditions: Aurora A Ki Mean ± SD, [ATP] = Km(ATP) (35 μM); Ki calculated from IC50 with tight-binding equation
# T3 sequence (O14965 1-403): T2 sequence (O14965 1-403)
# [19] = test system: Aurora A-TPX2; conditions: cited from earlier work; for IC50: ref 121, read-out: Aurora A-TPX2 IC50 (Published)
# [20] = test system: Aurora A; conditions: read-out: Aurora A IC50 (Published), cited from earlier work
# [21] = test system: HeLa cells; experiment: G2 duration live imaging assay (GFP-PCNA; H2B-RFP), HeLa; format: cell-based, human; conditions: Homo sapiens, read-out: G2/M (G2 duration) IC50
# [22] = test system: RPE1 cells; experiment: G2 duration live imaging assay (GFP-PCNA; H2B-RFP), RPE1; format: cell-based; conditions: Homo sapiens, RPE-1; RPE1; read-out: G2/M (G2 duration) IC50
# [23] = test system: U2OS cells; experiment: G2 duration live imaging assay (GFP-PCNA; H2B-RFP), U2OS; format: cell-based; conditions: Homo sapiens, read-out: G2/M (G2 duration) IC50
# [24] = fold difference in potency calculated by dividing Ki values, for GSK1070916 the Aurora B Ki of ref 61 was used
# [25] = RPE-1, RPE1, cytokinesis failure, read-out: Cytokinesis IC50
# [26] = RPE-1, RPE1, 8 h inhibitor treatment
structure (smiles),measurement,setting,value
CCN(CCO)CCCOc1ccc2c(Nc3cc(CC(=O)Nc4cccc(F)c4)[nH]n3)ncnc2c1 [AZD1152-HQPA],Effect on Aurora A activity (pAuroraA Thr 288),[1]; 300 nM (Figure S6),did not
same,Effect on pAuroraA(Thr 288),[1]; dose–response,did not affect
same,Concentration completely eliminating pH3(Ser 28) labeling without affecting pLATS2(Ser 83) labeling,[2],< 100 nM
same,IC50,[2],5 nM
same,pLATS2 (Ser83) IC50,[3],NE@200 nM
same,IC50,"[4]; RPE-1, 8 h",25 nM
same,IC50,"[5]; RPE-1, read-out: Cytokinesis IC50",23 nM
same,IC50,[6],4 nM
same,"Effect on pH3(Ser 10), pH3(Ser 28), pAuroraB(Thr 232)",[7],eliminated
same,Toxicity / cytotoxicity (cellular proliferation),[8],not observed
same,pLATS2 (Ser83) IC50,[9],NE@200 nM
same,IC50,[10],20 nM
same,IC50,[11]; 8 h,12 nM
same,pLATS2 (Ser83) IC50,[12],NE (100 nM); also recorded: NE@100 nM
same,Kinases inhibited ≥65% of control,[13],Aurora B was the only enzyme
same,remaining activity at 0.1 µM,[14],104%
CCS(=O)(=O)Nc1ccc2c(c1)/C(=C(/Nc1ccc(CN3CCCCC3)cc1)c1ccccc1)C(=O)N2 [Hesperadin],Concentration completely eliminating pH3(Ser 28) labeling without affecting pLATS2(Ser 83) labeling,[2],< 100 nM
same,IC50,[2]; 8 h inhibitor treatment,14 nM
same,Ki,"[15]; Aurora B-INCENP^783–918 Ki Mean ± SD, [ATP] = Km(ATP) (10 μM)",0.03 ± 0.014 nM
same,Selectivity ratio Aur B-INCENP^783–918 versus Aur A,[15]; [24],40.2 fold
same,Selectivity ratio Aur B-INCENP^783–918 versus Aur A-TPX2^1–43,[15]; [24],45.3 fold
same,Ki,[16],1.37 ± 0.12 nM
same,IC50,[5]; [25],47 nM
same,IC50,[17]; ref 45,250 nM
same,IC50,[17]; ref 121,3 nM
same,IC50,[6]; cytokinesis failure,14 nM
same,Stability under long-term live imaging conditions,"[6]; ability to block cytokesis over time in live imaging, cell line not specified",appeared to be unstable under live imaging conditions; also recorded: appears to be unstable under long-term live imaging conditions
same,Ki,[18],1.21 ± 0.14 nM
same,IC50,[10]; cytokinesis failure,17 nM
same,pLATS2 (Ser83) IC50,[12],NE (100 nM); also recorded: NE@100 nM
same,IC50,[19],11 nM
O=C(O)c1ccc(Nc2ncc3c(n2)-c2ccc(Cl)cc2C(c2c(F)cccc2F)=NC3)cc1 [MLN8054],IC50,[2]; 8 h inhibitor treatment,2900 nM
same,IC50,[3],720 nM
same,IC50,[4]; [26],880 nM
same,IC50,[21],736 nM
same,IC50,[22],500 nM
same,IC50,[9],800 nM
same,IC50,[11]; 8 h inhibitor treatment,3300 nM
same,Specificity window (pLATS2(Ser 83) versus pH3(Ser 28)),[12],10 fold
same,IC50,[12],290 nM
same,Ki,"[19]; ref 71, read-out: Aurora A-TPX2 Ki (Published)",3.3 nM
same,IC50,[23],957 nM
COc1cc(Nc2ncc3c(n2)-c2ccc(Cl)cc2C(c2c(F)cccc2OC)=NC3)ccc1C(=O)O [MLN8237],IC50,[2]; 8 h inhibitor treatment,160 nM
same,IC50,[3],130 nM
same,IC50,[4]; [26],130 nM
same,IC50,[21],128 nM
same,IC50,[22],115 nM
same,IC50,[9],92 nM
same,IC50,[11]; 8 h inhibitor treatment,210 nM
same,Specificity window (pLATS2(Ser 83) versus pH3(Ser 28)),[12],4 fold
same,IC50,[12],37 nM
same,IC50,[23],157 nM
Cc1cc(Nc2cc(N3CCN(C)CC3)nc(Sc3ccc(NC(=O)C4CC4)cc3)n2)[nH]n1 [VX-680],IC50,[2]; 8 h inhibitor treatment,45 nM
same,IC50,[12],150 nM
COc1cc2c(Nc3ccc(NC(=O)c4ccccc4)cc3)ncnc2cc1OCCCN1CCOCC1 [ZM447439],IC50,[2]; 8 h inhibitor treatment,410 nM
same,IC50,[5]; [25],1320 nM
same,IC50,[6]; cytokinesis failure,615 nM
same,IC50,[10]; cytokinesis failure,613 nM
same,pLATS2 (Ser83) IC50,[12],NE (3 μM); also recorded: NE@3 μM
same,IC50,[19],360 nM
